From patent US12522594B2, “2-heteroaryl-3-oxo-2,3-dihydropyridazine-4-carboxamides for the treatment of cancer” (Deutsches Krebsforschungszentrum, priority 2017, dated 2026)

Tests used:
[1] = molecular target: T1, AHR (Homo sapiens, UniProt P35869); assay: In vitro assay 1: antagonism in human cell line (transactivation assay, U87 cells prestimulated with kynurenic acid, DRE firefly luciferase reporter); format: cell-based; design: host or cells: U87 glioblastoma cells, stably transfected with DRE firefly luciferase and renilla reporter constructs; settings: 150 uM kynurenic acid, 20 hours, read-out: Assay 1: AHR-luc Hum Antagonism IC50
T1 sequence (P35869 11-848): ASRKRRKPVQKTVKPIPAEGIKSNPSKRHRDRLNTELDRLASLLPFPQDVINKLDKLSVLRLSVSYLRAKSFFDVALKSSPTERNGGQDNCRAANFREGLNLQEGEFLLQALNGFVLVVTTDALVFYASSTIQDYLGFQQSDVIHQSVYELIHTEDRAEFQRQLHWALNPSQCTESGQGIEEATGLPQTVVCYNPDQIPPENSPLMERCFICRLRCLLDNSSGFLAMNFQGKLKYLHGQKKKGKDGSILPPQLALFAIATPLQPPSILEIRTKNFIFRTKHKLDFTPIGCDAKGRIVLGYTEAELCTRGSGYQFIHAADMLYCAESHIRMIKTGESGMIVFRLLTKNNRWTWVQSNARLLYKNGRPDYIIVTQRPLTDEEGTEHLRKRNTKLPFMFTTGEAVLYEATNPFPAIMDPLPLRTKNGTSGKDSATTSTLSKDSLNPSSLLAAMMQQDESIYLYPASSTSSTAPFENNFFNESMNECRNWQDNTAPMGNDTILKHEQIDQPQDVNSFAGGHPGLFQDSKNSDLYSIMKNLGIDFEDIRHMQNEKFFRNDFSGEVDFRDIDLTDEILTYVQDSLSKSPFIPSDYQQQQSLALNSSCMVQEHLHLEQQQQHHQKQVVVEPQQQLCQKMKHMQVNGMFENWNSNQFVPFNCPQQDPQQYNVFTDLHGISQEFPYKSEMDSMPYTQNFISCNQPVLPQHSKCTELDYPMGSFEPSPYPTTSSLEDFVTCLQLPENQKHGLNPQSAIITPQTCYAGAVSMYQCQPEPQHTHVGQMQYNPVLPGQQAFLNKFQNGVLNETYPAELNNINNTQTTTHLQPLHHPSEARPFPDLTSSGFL
Procedure, shortened: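 U87 glioblastoma cells with endogenous AHR, stably carrying a DRE-driven firefly luciferase reporter and a constitutive renilla reporter. Cells prestimulated with the AHR agonist kynurenic acid before compound addition; data normalized to positive and negative controls.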

[2] = molecular target: T1, AHR; assay: In vitro assay 2: agonism in human cell line (transactivation assay, U87 cells, DRE firefly luciferase reporter); format: cell-based; design: host or cells: U87 glioblastoma cells, stably transfected with DRE firefly luciferase and renilla reporter constructs; settings: no kynurenic acid, 20 hours, read-out: Assay 2: AHR-luc Hum Agonism IC50
Procedure, shortened: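 U87 glioblastoma cells with endogenous AHR, stably carrying DRE-driven firefly luciferase and constitutive renilla reporters. 300 uM kynurenic acid served as positive activation control; data normalized to positive and negative controls.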

| Structure (SMILES) | IC50 [1] | IC50 [2] |
| --- | --- | --- |
| COCC(O)CNC(=O)c1cc(-c2ccc(Cl)cc2)nn(-c2cnn(C)c2)c1=O (single isomer, unassigned; (+)) [Example 26, (+)-6-(4-Chlorophenyl)-N-(2-hydroxy-3-methoxypropyl)-2-(1-methyl-1H-pyrazol-4-yl)-3-oxo-2,3-dihydropyridazine-4-carboxamide] | 0.0875 µM | > 20 µM |
| O=C(N[C@H]1COC[C@@H]1O)c1cc(-c2ccc(Cl)cc2)nn(-c2cccnc2)c1=O (single isomer, unassigned; enantiomer 1) [Example 169, 6-(4-Chlorophenyl)-N-[(trans)-4-hydroxytetrahydrofuran-3-yl]-3-oxo-2-(pyridin-3-yl)-2,3-dihydropyridazine-4-carboxamide, Enantiomer 1] | 0.0317 µM | > 20 µM |
| O=C(N[C@H]1COC[C@@H]1O)c1cc(-c2ccc(Cl)cc2)nn(-c2cncc(F)c2)c1=O (single isomer, unassigned; enantiomer 2) [Example 156, 6-(4-Chlorophenyl)-2-(5-fluoropyridin-3-yl)-N-[(trans)-4-hydroxytetrahydrofuran-3-yl]-3-oxo-2,3-dihydropyridazine-4-carboxamide, Enantiomer 2] | 0.025 µM | > 20 µM |
| C[C@@H](CO)NC(=O)c1cc(-c2ccc(Cl)cc2)nn(-c2ccnnc2)c1=O [Example 177, 3-(4-Chlorophenyl)-N-[(2S)-1-hydroxypropan-2-yl]-6-oxo-6H-1,4′-bipyridazine-5-carboxamide] | 0.465 µM | > 20 µM |
| CC(C)(O)C(NC(=O)c1cc(-c2ccc(Cl)cc2)nn(-c2cncnc2)c1=O)C(F)(F)F (single isomer, unassigned) [Example 187, 6-(4-Chlorophenyl)-3-oxo-2-(pyrimidin-5-yl)-N-(1,1,1-trifluoro-3-hydroxy-3-methylbutan-2-yl)-2,3-dihydropyridazine-4-carboxamide] | 0.0335 µM | > 20 µM |
| CC(C)[C@@H](CO)NC(=O)c1cc(-c2ccc(Cl)cc2)nn(-c2cncc(F)c2)c1=O [Example 83, 6-(4-Chlorophenyl)-2-(5-fluoropyridin-3-yl)-N-[(2S)-1-hydroxy-3-methylbutan-2-yl]-3-oxo-2,3-dihydropyridazine-4-carboxamide] | 0.00461 µM | > 20 µM |
| O=C(NC[C@H](O)CO)c1cc(-c2ccc(Cl)cc2)nn(-c2cncc(F)c2)c1=O [Example 99, 6-(4-Chlorophenyl)-N-[(2S)-2,3-dihydroxypropyl]-2-(5-fluoropyridin-3-yl)-3-oxo-2,3-dihydropyridazine-4-carboxamide] | 0.129 µM | > 20 µM |
| O=C(N[C@H]1CCCC(F)(F)[C@@H]1O)c1cc(-c2ccc(Cl)cc2)nn(-c2cccnc2)c1=O (racemic) [Example 143, 6-(4-Chlorophenyl)-N-[(trans)-3,3-difluoro-2-hydroxycyclohexyl]-3-oxo-2-(pyridin-3-yl)-2,3-dihydropyridazine-4-carboxamide] | 0.00961 µM | > 20 µM |
| CC(C)(O)C(NC(=O)c1cc(-c2ccc(OC(F)(F)F)cc2)nn(-c2cccnc2)c1=O)C(F)(F)F (centres unmarked) [Example 135, 3-Oxo-2-(pyridin-3-yl)-N-[1,1,1-trifluoro-3-hydroxy-3-methylbutan-2-yl]-6-[4-(trifluoromethoxy)phenyl]-2,3-dihydropyridazine-4-carboxamide] | 0.00791 µM | > 20 µM |

The next lines start with the values.

| IC50 [1] | IC50 [2] | Structure (SMILES) |
| --- | --- | --- |
| 0.0153 µM | > 20 µM | O=C(N[C@@H]1CC[C@@H]1O)c1cc(-c2ccc(Cl)cc2)nn(-c2cccnc2)c1=O (single isomer, unassigned) [Example 249, (+)-6-(4-Chlorophenyl)-N-cis-2-hydroxycyclo-butyl-3-oxo-2-(pyridin-3-yl)-2,3-dihydropyridazine-4-carboxamide] |
| 0.0412 µM | > 20 µM | CC(C)(O)CNC(=O)c1cc(-c2ccc(C(F)(F)F)cc2)nn(-c2cnn(C(F)F)c2)c1=O [Example 262, 2-[1-(Difluoromethyl)-1H-pyrazol-4-yl]-N-(2-hydroxy-2-methylpropyl)-3-oxo-6-[4-(trifluoromethyl)phenyl]-2,3-dihydropyridazine-4-carboxamide] |
| 0.102 µM | > 20 µM | N#C[C@@H](CO)NC(=O)c1cc(-c2ccc(C(F)(F)F)nc2)nn(-c2cncc(F)c2)c1=O [Example 341, N-[(1S)-1-Cyano-2-hydroxyethyl]-2-(5-fluoropyridin-3-yl)-3-oxo-6-[6-(trifluoromethyl)pyridin-3-yl]-2,3-dihydropyridazine-4-carboxamide] |
| 0.0602 µM | > 20 µM | C[C@H](O)[C@H](C)NC(=O)c1cc(-c2ccc(OC(F)F)cc2)nn(-c2cccnc2)c1=O [Example 334, 6-[4-(Difluoromethoxy)phenyl]-N-[(2S,3S)-3-hydroxybutan-2-yl]-3-oxo-2-(pyridin-3-yl)-2,3-dihydropyridazine-4-carboxamide] |
| 0.00591 µM | > 20 µM | C[C@H](NC(=O)c1cc(-c2ccc(C(F)(F)F)cc2)nn(-c2cccnc2)c1=O)C(C)(C)O [Example 226, N-[(2S)-3-Hydroxy-3-methylbutan-2-yl]-3-oxo-2-(pyridin-3-yl)-6-[4-(trifluoromethyl)phenyl]-2,3-dihydropyridazine-4-carboxamide] |
| 0.672 µM | > 20 µM | CC(C)(O)CNC(=O)c1cc(-c2ccc(CF)cc2)nn(-c2cccnc2)c1=O [Example 286, 6-[4-(Fluoromethyl)phenyl]-N-(2-hydroxy-2-methylpropyl)-3-oxo-2-(pyridin-3-yl)-2,3-dihydropyridazine-4-carboxamide] |
| 0.0553 µM | > 20 µM | C[C@@H](CO)NC(=O)c1cc(-c2ccc(C(F)(F)F)cn2)nn(-c2cccnc2)c1=O [Example 345, N-[(2S)-1-Hydroxypropan-2-yl]-3-oxo-2-(pyridin-3-yl)-6-[5-(trifluoromethyl)pyridin-2-yl]-2,3-dihydropyridazine-4-carboxamide] |
| 0.00149 µM | > 20 µM | CC(NC(=O)c1cc(-c2ccc(Cl)cc2)nn(-c2cccnc2)c1=O)C(O)C(F)(F)F (single isomer, unassigned) [Example 297, 6-(4-Chlorophenyl)-3-oxo-2-(pyridin-3-yl)-N-(4,4,4-trifluoro-3-hydroxybutan-2-yl)-2,3-dihydropyridazine-4-carboxamide] |
| 0.0927 µM | > 20 µM | C[C@]1(O)CCC[C@H]1NC(=O)c1cc(-c2ccc(OC(F)(F)F)cc2)nn(-c2cccnc2)c1=O (single isomer, unassigned) [Example 330, N-[(cis)-2-hydroxy-2-methylcyclopentyl]-3-oxo-2-(pyridin-3-yl)-6-[4-(trifluoromethoxy)phenyl]-2,3-dihydropyridazine-4-carboxamide] |
| 0.242 µM | > 20 µM | C[C@@H](NC(=O)c1cc(-c2ccc(Cl)cc2)nn(-c2cn[nH]c2)c1=O)C(C)(C)O [Example 325, 6-(4-Chlorophenyl)-N-[(2R)-3-hydroxy-3-methylbutan-2-yl]-3-oxo-2-(1H-pyrazol-4-yl)-2,3-dihydropyridazine-4-carboxamide] |
| 0.0294 µM | > 20 µM | C[C@]1(O)CCC[C@H]1NC(=O)c1cc(-c2ccc(OC(F)(F)F)cc2)nn(-c2cccnc2)c1=O (single isomer, unassigned) [Example 329, N-[(cis)-2-hydroxy-2-methylcyclopentyl]-3-oxo-2-(pyridin-3-yl)-6-[4-(trifluoromethoxy)phenyl]-2,3-dihydropyridazine-4-carboxamide] |
| 0.00363 µM | > 20 µM | O=C(N[C@H](CO)CF)c1cc(-c2ccc(C(F)(F)F)cc2)nn(-c2cccnc2)c1=O [Example 221, N-[(2R)-1-Fluoro-3-hydroxypropan-2-yl]-3-oxo-2-(pyridin-3-yl)-6-[4-(trifluoromethyl)phenyl]-2,3-dihydropyridazine-4-carboxamide] |
| 0.0125 µM | > 20 µM | O=C(NCC1(O)CC1)c1cc(-c2ccc(C(F)(F)F)cc2)nn(-c2cccnc2)c1=O [Example 188, N-[(1-Hydroxycyclopropyl)methyl]-3-oxo-2-(pyridin-3-yl)-6-[4-(trifluoromethyl)phenyl]-2,3-dihydropyridazine-4-carboxamide] |
